In patent US6737383B1, “Herbicidal oxadiazolidines” (priority 1999, dated 2004):

How the values were obtained:
velvetleaf = assay: Test B pre/postemergence velvetleaf; assay type: in vivo, Abutilon theophrasti
Outline: (§1)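 Herbicidal effect was estimated by eye on a ten-point control scale after plants spent twelve to sixteen days in a greenhouse following soil or foliar treatment. Foliar sprays targeted plants at one to four leaves; all doses were formulated in a non-phytotoxic solvent with surfactant.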

bamyardgrass = assay: Test B flood test barnyardgrass; assay type: in vivo, Echinochloa crus-galli
Outline: (§2)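 Flood test on plants grown to the 2-leaf stage; treated plants kept in greenhouse twelve to sixteen days, then visually rated against controls on a 0 (no effect) to 10 (complete control) scale.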

surinam grass = assay: Test B pre/postemergence surinam grass; assay type: in vivo, Brachiaria decumbens
Outline: as §1

purple nutsedge = assay: Test B pre/postemergence purple nutsedge; assay type: in vivo, Cyperus rotundus
Outline: as §1

sugar beet = assay: Test B pre/postemergence sugar beet; assay type: in vivo, Beta vulgaris
Outline: as §1

pigweed = assay: Test B pre/postemergence pigweed; assay type: in vivo, Amaranthus retroflexus
Outline: as §1

wheat = assay: Test B pre/postemergence wheat; assay type: in vivo, Triticum aestivum
Outline: as §1

wild oat = assay: Test B pre/postemergence wild oat; assay type: in vivo, Avena fatua
Outline: as §1

duck salad = assay: Test B flood test duck salad; assay type: in vivo, Heteranthera limosa
Outline: as §2

bedstraw = assay: Test B pre/postemergence bedstraw; assay type: in vivo, Galium aparine
Outline: as §1

blackgrass = assay: Test B pre/postemergence blackgrass; assay type: in vivo, Alopecurus myosuroides
Outline: as §1

morningglory = assay: Test B pre/postemergence morningglory; assay type: in vivo, Ipomoea hederacea
Outline: as §1

giant foxtail = assay: Test B pre/postemergence giant foxtail; assay type: in vivo, Setaria faberii
Outline: as §1

rice = assay: Test B flood test rice; assay type: in vivo, Oryza sativa
Outline: as §2

crabgrass = assay: Test B pre/postemergence crabgrass; assay type: in vivo, Digitaria sanguinalis
Outline: as §1

cocklebur = assay: Test B pre/postemergence cocklebur; assay type: in vivo, Xanthium strumarium
Outline: as §1

[1] = Preemergence, Rate 62 g/ha, scale of 0 to 10 where 0 is no effect and 10 is complete control
[2] = Preemergence, Rate 250 g/ha, scale of 0 to 10 where 0 is no effect and 10 is complete control
[3] = Preemergence, Rate 500 g/ha, scale of 0 to 10 where 0 is no effect and 10 is complete control
[4] = Rate 62 g/ha, Postemergence, scale 0 to 10 (0 no effect, 10 complete control)
[5] = Rate 125 g/ha, Postemergence, scale of 0 to 10 where 0 is no effect and 10 is complete control
[6] = Rate 250 g/ha, Postemergence, scale of 0 to 10 where 0 is no effect and 10 is complete control
[7] = Rate 62 g/ha, headed Pre-emergence (flood test species), scale 0 to 10 (0 no effect, 10 complete control)
[8] = Rate 125 g/ha, Pre-emergence, flood test species, scale 0 to 10 where 0 is no effect and 10 is complete control
[9] = Rate 250 g/ha, Pre-emergence, flood-test species, scale 0 to 10, 0 is no effect, 10 is complete control
[10] = Rate 500 g/ha, Pre-emergence, flood test species, scale 0 to 10 (0 no effect, 10 complete control)
[11] = Rate 500 g/ha, Postemergence, scale 0 to 10, 0 no effect, 10 complete control

Cc1cccc(C(C)(C)C)c1-n1c(=O)on(C(=O)N(c2ccccc2)C(C)C)c1=O [Compound 303]
Velvetleaf plant response rating (velvetleaf; [1]): 0
Velvetleaf plant response rating (0 to 10 scale) (velvetleaf; Preemergence, Rate 125 g/ha): 0
Velvetleaf plant response rating (velvetleaf; [2]): 0
Velvetleaf plant response rating (velvetleaf; [3]): 0
Velvetleaf plant response rating (velvetleaf; [4]): 0
Velvetleaf plant response rating (velvetleaf; [5]): 0
Plant response rating, Velvetleaf (velvetleaf; [6]): 0
Barnyardgrass plant response rating (bamyardgrass; [7]): 0
Barnyardgrass plant response rating (bamyardgrass; [8]): 0
Barnyardgrass plant response rating (bamyardgrass; [9]): 0
Barnyardgrass plant response rating (bamyardgrass; [10]): 0
B. signalgrass plant response rating (surinam grass; [1]): 0
B. signalgrass plant response rating (0 to 10 scale, 0 is no effect, 10 is complete control) (surinam grass; Preemergence, Rate 125 g/ha): 0
B. signalgrass plant response rating (surinam grass; [2]): 0
B. signalgrass plant response rating (surinam grass; [3]): 0
B. signalgrass plant response rating (surinam grass; [4]): 0
B. signalgrass plant response rating (surinam grass; [5]): 0
Plant response rating, B. signalgrass (surinam grass; [6]): 0
B. signalgrass plant response rating (surinam grass; [11]): 0
Nutsedge plant response rating (purple nutsedge; [1]): 0
Nutsedge plant response rating (purple nutsedge; [2]): 0
Nutsedge plant response rating (purple nutsedge; [3]): 0
Nutsedge plant response rating (purple nutsedge; [4]): 0
Nutsedge plant response rating (purple nutsedge; [5]): 0
Plant response rating, Nutsedge (purple nutsedge; [6]): 0
Sugarbeets plant response rating (sugar beet; [1]): 0
Sugarbeets plant response rating (0 to 10 scale) (sugar beet; Preemergence, Rate 125 g/ha): 0
Sugarbeets plant response rating (sugar beet; [2]): 0
Sugarbeets plant response rating (sugar beet; [3]): 0
Sugarbeets plant response rating (sugar beet; [4]): 0
Sugarbeets plant response rating (sugar beet; [5]): 0
Plant response rating, Sugarbeets (sugar beet; [6]): 0
Redroot pigweed plant response rating (pigweed; [1]): 0
Redroot pigweed plant response rating (0 to 10 scale) (pigweed; Preemergence, Rate 125 g/ha): 0
Redroot pigweed plant response rating (pigweed; [2]): 0
Redroot pigweed plant response rating (pigweed; [3]): 0
Redroot pigweed plant response rating (pigweed; [4]): 0
Redroot pigweed plant response rating (pigweed; [5]): 0
Plant response rating, Redroot pigweed (pigweed; [6]): 2
Wheat plant response rating (wheat; [1]): 0
Wheat plant response rating (0 to 10 scale) (wheat; Preemergence, Rate 125 g/ha): 0
Wheat plant response rating (wheat; [2]): 0
Wheat plant response rating (wheat; [3]): 0
Wheat plant response rating (wheat; [4]): 0
Wheat plant response rating (wheat; [5]): 0
Plant response rating, Wheat (wheat; [6]): 0
Wild oats plant response rating (wild oat; [1]): 0
Wild oats plant response rating (0 to 10 scale) (wild oat; Preemergence, Rate 125 g/ha): 0
Wild oats plant response rating (wild oat; [2]): 0
Wild oats plant response rating (wild oat; [3]): 0
Wild oats plant response rating (wild oat; [4]): 0
Wild oats plant response rating (wild oat; [5]): 0
Plant response rating, Wild oats (wild oat; [6]): 0
Ducksalad plant response rating (duck salad; [7]): 0
Ducksalad plant response rating (duck salad; [8]): 0
Ducksalad plant response rating (duck salad; [9]): 0
Ducksalad plant response rating (duck salad; [10]): 0
Bedstraw plant response rating (bedstraw; [1]): 0
Bedstraw plant response rating (0 to 10 scale) (bedstraw; Preemergence, Rate 125 g/ha): 0
Bedstraw plant response rating (bedstraw; [2]): 0
Bedstraw plant response rating (bedstraw; [5]): 0
Bedstraw plant response rating (bedstraw; [11]): 0
Blackgrass plant response rating (blackgrass; [1]): 0
Blackgrass plant response rating (0 to 10 scale) (blackgrass; Preemergence, Rate 125 g/ha): 0
Blackgrass plant response rating (blackgrass; [2]): 0
Blackgrass plant response rating (blackgrass; [3]): 0
Blackgrass plant response rating (blackgrass; [4]): 0
Blackgrass plant response rating (blackgrass; [5]): 0
Plant response rating, Blackgrass (blackgrass; [6]): 0
Blackgrass plant response rating (blackgrass; [11]): 0
Morningglory plant response rating (morningglory; [1]): 0
Morningglory plant response rating (0 to 10 scale) (morningglory; Preemergence, Rate 125 g/ha): 0
Morningglory plant response rating (morningglory; [2]): 0
Morningglory plant response rating (morningglory; [3]): 3
Morningglory plant response rating (morningglory; [4]): 0
Morningglory plant response rating (morningglory; [5]): 0
Plant response rating, Morningglory (morningglory; [6]): 0
Giant foxtail plant response rating (giant foxtail; [1]): 0
Giant foxtail plant response rating (0 to 10 scale) (giant foxtail; Preemergence, Rate 125 g/ha): 0
Giant foxtail plant response rating (giant foxtail; [2]): 0
Giant foxtail plant response rating (giant foxtail; [3]): 0
Giant foxtail plant response rating (giant foxtail; [4]): 0
Giant foxtail plant response rating (giant foxtail; [5]): 0
Plant response rating, Giant foxtail (giant foxtail; [6]): 0
Rice plant response rating (rice; [7]): 0
Rice plant response rating (rice; [8]): 0
Rice plant response rating (rice; [9]): 0
Rice plant response rating (rice; [10]): 0
Crabgrass plant response rating (crabgrass; [1]): 0
Crabgrass plant response rating (0 to 10 scale) (crabgrass; Preemergence, Rate 125 g/ha): 0
Crabgrass plant response rating (crabgrass; [2]): 0
Crabgrass plant response rating (crabgrass; [4]): 0
Crabgrass plant response rating (crabgrass; [5]): 0
Plant response rating, Crabgrass (crabgrass; [6]): 0
Cocklebur plant response rating (cocklebur; [1]): 0
Cocklebur plant response rating (0 to 10 scale) (cocklebur; Preemergence, Rate 125 g/ha): 0
Cocklebur plant response rating (cocklebur; [2]): 0
Cocklebur plant response rating (cocklebur; [3]): 0
Cocklebur plant response rating (cocklebur; [4]): 0
Cocklebur plant response rating (cocklebur; [5]): 0
Plant response rating, Cocklebur (cocklebur; [6]): 0
Cocklebur plant response rating (cocklebur; [11]): 0
